In patent publication EP1144412B1, “IMMUNOSUPPRESSIVE EFFECTS OF PTERIDINE DERIVATIVES” (4 AZA Bioscience nv, priority 1998, dated 2000):
Read-outs that look alike come from different tables or passages of the source.

What was measured:
[1] = tested on: Peripheral blood mononuclear cells (PBMC); experiment: Mixed lymphocyte reaction (MLR), [3H]-thymidine incorporation; format: cell-based; conditions: Homo sapiens
From the text: (§1) Various models may be used for testing an immunosuppressive effect. In vivo, for example, different transplantation models are available. They are strongly influenced by different immunogenicities, depending on the donor and recipient species used and depending on the nature of the transplanted organ. The survival time of transplanted organs can thus be used to measure the suppression of the immune response. In vitro, there exist also various models. The most used are lymphocyte activation tests. Usually activation is measured via lymphocyte proliferation. Inhibition of proliferation thus always means immunosuppression under the experimental conditions applied. There exist different stimuli for lymphocyte activation: • coculture of lymphocytes of […] (MLR = mixed lymphocyte reaction): lymphocytes expressing different minor and major antigens of the HLA-DR type (= alloantigens) activate each other non-specifically. • CD3 assay: here there is an activation of the T-lymphocytes via an exogenously added antibody (OKT3). This antibody reacts against the CD3 molecule located on the lymphocyte membrane. This molecule has a costimulatory function. […] This molecule is also located on the lymphocyte membrane, and delivers strong costimulatory signals.
Peripheral blood mononuclear cells (PBMC) were isolated from heparinized peripheral blood by density gradient centrifugation over Lymphoprep (Nycomed, Maorstua, Norway). Allogeneic PBMC or EBV-transformed human B cells [RPMI1788 (ATCC name CCL156)] which strongly express B7-1 and B7-2 were used as stimulator cells after irradiation with 30 Gy. MLR was performed in triplicate wells. After 5 days incubation at 37EC, 1 µCi [^3H]-thymidine was added to each cup. After a further 16 hours incubation, cells were harvested and counted in a β-counter.
The percent suppression of proliferation by drugs was counted using the formula Percent inhibition =((cpm + drugs) - cpm Cult. Med)/((cpm - drugs) - cpm Cult. Med.)x 100 [formula]

Highly purified T cells [2] = experiment: T cell proliferation induced by anti-CD3 mAb + PMA (BrdU incorporation); format: cell-based, Human; conditions: for IC50: Homo sapiens, T-cell
From the text: as §1
(§2) T cells were purified by removing non-T cells. Briefly,monocytes were removed by cold agglutination. The resulting lymphoid cells were further purified by a cell enrichment immunocolumn [Cellect Human T (Biotex, Edmonton, Alberta, Canada)] by a process of negative selection.
(§3) Measurements of T cell proliferations induced by anti-CD3 mAb + PMA or anti-CD28 mAb + PMA
(§4) Highly purified T cells (10^6/ml) were stimulated by immobilized anti-CD3 àr anti-CD28 mAb in the presence of PMA. Anti-CD3 mAb (CLB-CD3; CLB, Amsterdam, The Netherlands) were fixed on the 96-microwell plates by incubating the wells with 50 µl of mAb solution (1/800 dilution in culture medium). Anti-CD28 mAb (CLB-CD28; CLB, Amsterdam, The Netherlands) 50 µl (1/650 dilution in culture medium) was added directly to the wells. Further, 20 µl PMA (Sigma, St. Louis, MO, USA) solution (final concentration: 0.5 ng/ml) was added. Subsequently, 20 µl of immunosuppressants were added by serial dilution in triplicate wells. Finally 100 µl of the T cell suspension (10^6/ml) was added. After 48-hour incubation at 37EC in 5% CO2 20 Φl BrdU (100 ΦM solution) (Cell Proliferation Elisa, Boehringer-Mannheim Belgium) was added to each well. After a further overnight incubation the T cell proliferation was measured using a colorimetric immunoassay for qualification of cell proliferation based on measurements of the incorporation of BrdU during DNAsynthesis. The optical density (OD) was measured by a Behring EL311 plate reader at 450 nm (reference wavelength: 690 nm). The percent suppression of proliferation by drugs was counted using the formula: Per cent inhibition =((OD + drugs) - (OD Cult. Med.))/((OD - drugs) - (OD Cult. Med.))x 100 [formula]

Highly purified T cells [3] = experiment: T cell proliferation induced by anti-CD28 mAb + PMA (BrdU incorporation); format: cell-based, Human; conditions: for IC50: Homo sapiens, T-cell
From the text: as §1, §2, §3, §4

[4] = Table II, read-out: IC50 in µM of pteridine derivative MLR
[5] = untitled structure table, no unit printed there, same values in Table II as IC50 in µM, read-out: MLR
[6] = Table II, read-out: IC50 in µM of pteridine derivative ACD3
[7] = untitled structure table, no unit printed there, same values in Table II as IC50 in µM, read-out: aCD3
[8] = Table II, read-out: IC50 in µM of pteridine derivative aCD28
[9] = untitled structure table, no unit printed there, same values in Table II as IC50 in µM, read-out: aCD28
[10] = untitled structure table, IC50 subranges, read-out: MLR
[11] = untitled structure table, IC50 subranges, read-out: aCD3
[12] = untitled structure table, IC50 subranges, read-out: aCD28
[13] = Table III, comparison immunosuppressants, read-out: IC50 MLR
[14] = Table III, comparison immunosuppressants, read-out: IC50 aCD3
[15] = Table III, comparison immunosuppressants, read-out: IC50 aCD28

SMILES: Nc1nc(N2CCNCC2)c2nc(-c3ccc(Cl)cc3)cnc2n1 [Compound 47, 2-amino-4-piperazino-6-(4-chlorophenyl)pteridine]
- IC50 [1, 4]: 2 µM
- IC50 [1, 5]: 2 µM
- IC50 (Highly purified T cells [2]; [6]): 20 µM
- IC50 (Highly purified T cells [2]; [7]): 20 µM
- IC50 (Highly purified T cells [3]; [8]): 15 µM
- IC50 (Highly purified T cells [3]; [9]): 15 µM

SMILES: COc1ccc(-c2cnc3nc(N)nc(N4CCNCC4)c3n2)cc1 [Compound 48, 2-amino-4-piperazino-6-(4-methoxyphenyl)pteridine]
- IC50 [1, 4]: 10.5 µM
- IC50 [1, 5]: 10.5 µM
- IC50 (Highly purified T cells [2]; [6]): 14 µM
- IC50 (Highly purified T cells [2]; [7]): 14 µM
- IC50 (Highly purified T cells [3]; [8]): 4.5 µM
- IC50 (Highly purified T cells [3]; [9]): 4.5 µM

SMILES: COc1ccc(-c2cnc3nc(N)nc(N4CCNCC4)c3n2)cc1OC [Compound 49, 2-amino-4-piperazino-6-(3,4-dimethoxyphenyl)pteridine]
- IC50 [1, 4]: 2.8 µM
- IC50 [1, 5]: 2.8 µM
- IC50 (Highly purified T cells [2]; [6]): 14.8 µM
- IC50 (Highly purified T cells [2]; [7]): 14.8 µM
- IC50 (Highly purified T cells [3]; [8]): 4.5 µM
- IC50 (Highly purified T cells [3]; [9]): 4.5 µM

SMILES: COc1cc(-c2cnc3nc(N)nc(N(Cc4ccccc4)Cc4ccccc4)c3n2)cc(OC)c1OC [Compound 50, 2-amino-4-dibenzylamino-6-(3,4,5-trimethoxyphenyl)pteridine]
- IC50 [1, 10]: 1 to 15 µM
- IC50 (Highly purified T cells [2]; [11]): 1 to 15 µM
- IC50 (Highly purified T cells [3]; [12]): 1 to 15 µM

SMILES: Nc1nc(N2CCOCC2)c2nc(-c3ccc4c(c3)OCO4)cnc2n1 [Compound 56, 2-amino-4-morpholino-6-(3,4-formylidene-3,4-dihydroxyphenyl)pteridine]
- IC50 [1, 10]: 1 to 15 µM
- IC50 (Highly purified T cells [2]; [11]): 16 to 150 µM
- IC50 (Highly purified T cells [3]; [12]): 16 to 150 µM

SMILES: CN(C)c1nc(N)nc2ncc(-c3ccc4c(c3)OCO4)nc12 [Compound 57, 2-amino-4-dimethylamino-6-(3,4-formylidene-3,4-dihydroxyphenyl)pteridine]
- IC50 [1, 10]: > 151 µM
- IC50 (Highly purified T cells [2]; [11]): 16 to 150 µM
- IC50 (Highly purified T cells [3]; [12]): 16 to 150 µM

SMILES: COc1ccc(-c2cnc3nc(N)nc(N(C)C)c3n2)cc1OC [Compound 59, 2-amino-4-dimethylamino-6-(3,4-dimethoxyphenyl)pteridine]
- IC50 [1, 10]: < 1 µM
- IC50 (Highly purified T cells [2]; [11]): 1 to 15 µM
- IC50 (Highly purified T cells [3]; [12]): 1 to 15 µM

SMILES: Cc1cnc2nc(N)nc(N(C)C)c2n1 [Compound 60, 2-amino-4-dimethylamino-6-methylpteridine]
- IC50 [1, 10]: 16 to 150 µM
- IC50 (Highly purified T cells [2]; [11]): 16 to 150 µM
- IC50 (Highly purified T cells [3]; [12]): 16 to 150 µM

SMILES: CCOc1nc(N)nc2ncc(-c3ccccc3)nc12 [Compound 61, 2-amino-4-ethoxy-6-phenylpteridine]
- IC50 [1, 10]: 1 to 15 µM
- IC50 (Highly purified T cells [2]; [11]): 1 to 15 µM
- IC50 (Highly purified T cells [3]; [12]): 1 to 15 µM

SMILES: CCCNc1nc(N)nc2ncc(-c3ccccc3)nc12 [Compound 62, 2-amino-4-propylamino-6-phenylpteridine]
- IC50 [1, 10]: 1 to 15 µM
- IC50 (Highly purified T cells [2]; [11]): 16 to 150 µM
- IC50 (Highly purified T cells [3]; [12]): 16 to 150 µM

SMILES: COc1ccc(-c2cnc3nc(NC(C)=O)nc(O)c3n2)cc1OC [Compound 64, 2-acetamido-4-hydroxy-6-(3,4-dimethoxyphenyl)pteridine]
- IC50 [1, 10]: 16 to 150 µM
- IC50 (Highly purified T cells [2]; [11]): > 151 µM
- IC50 (Highly purified T cells [3]; [12]): 16 to 150 µM

SMILES: COc1ccc(-c2cnc3nc(NC(C)=O)nc(OC(C)C)c3n2)cc1OC [Compound 65, 2-acetamido-4-i-propoxy-6-(3,4-dimethoxyphenyl)pteridine]
- IC50 [1, 10]: 1 to 15 µM
- IC50 (Highly purified T cells [2]; [11]): 16 to 150 µM
- IC50 (Highly purified T cells [3]; [12]): 16 to 150 µM

SMILES: C=CC[C@@H]1/C=C(\C)C[C@H](C)C[C@H](OC)[C@H]2O[C@@](O)(C(=O)C(=O)N3CCCC[C@H]3C(=O)O[C@H](/C(C)=C/[C@@H]3CC[C@@H](O)[C@H](OC)C3)[C@H](C)[C@@H](O)CC1=O)[C@H](C)C[C@@H]2OC [FK506, tacrolimus, reference compound]
- IC50 [1, 13]: 0.001 µM
- activity in the anti-CD3 + PMA test (Highly purified T cells [2]): only active
- IC50 (Highly purified T cells [2]; [14]): 0.001 µM
- activity in the anti-CD28 + PMA test (Highly purified T cells [3]): not suppressive

SMILES: Cc1oncc1C(=O)Nc1ccc(C(F)(F)F)cc1 [Leflunomide, reference compound]
- IC50 [1, 13]: 25 µM
- IC50 (Highly purified T cells [2]; [14]): 15 µM
- IC50 (Highly purified T cells [3]; [15]): 20 µM

SMILES: CN(Cc1cnc2nc(N)nc(N)c2n1)c1ccc(C(=O)N[C@@H](CCC(=O)O)C(=O)O)cc1 [MTX, methatroxate, reference compound]
- IC50 [1, 13]: 10 µM
- IC50 (Highly purified T cells [2]; [14]): > 200 µM
- IC50 (Highly purified T cells [3]; [15]): > 200 µM

SMILES: CO[C@H]1C[C@@H]2CC[C@@H](C)[C@@](O)(O2)C(=O)C(=O)N2CCCC[C@H]2C(=O)O[C@H]([C@H](C)C[C@@H]2CC[C@@H](O)[C@H](OC)C2)CC(=O)[C@H](C)/C=C(\C)[C@@H](O)[C@@H](OC)C(=O)[C@H](C)C[C@H](C)/C=C/C=C/C=C/1C [Rapamycin, reference compound]
- IC50 [1, 13]: 0.001 µM
- IC50 (Highly purified T cells [2]; [14]): 0.001 µM
- IC50 (Highly purified T cells [3]; [15]): 0.001 µM
